Reference: patent publication US20230085307A1, “PYRIDAZINONE COMPOUND AND HERBICIDE” (NISSAN CHEMICAL CORPORATION, priority 2019, published 2023)

Tests used:
chickweed [1] = assay: Test Example 5: herbicidal effect by foliage application, plastic box (Table 20, symbol P); type: in vivo, common chickweed (Stellaria media); conditions: amount of applied herbicide 320 g/ha; foliage application after 14-day growth; evaluated three weeks after application
Outline: (§1)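 Post-emergence foliar test in sterilized diluvial soil. Compound applied as water-diluted emulsion at a predetermined rate to 14-day-old plants; evaluation at three weeks.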

lambsquarters [2] = assay: Test Example 4: herbicidal effect by soil treatment (Table 19, symbol O); type: in vivo, lambsquarters (Chenopodium album); conditions: amount of applied herbicide 320 g/ha
Outline: (§2)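 Emulsion of test compound, water-diluted to predetermined amount, sprayed on soil after sowing (seed depth ~1.5 cm, sterilized diluvial soil). Greenhouse, 25–30° C. Effect graded at three weeks post-spray.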

windgrass [3] = assay: Test Example 5: herbicidal effect by foliage application, plastic box (Table 20, symbol L); type: in vivo, windgrass (Apera spica-venti); conditions: amount of applied herbicide 320 g/ha; foliage application after 14-day growth; evaluated three weeks after application
Outline: as §1

chickweed [4] = assay: Test Example 4: herbicidal effect by soil treatment (Table 19, symbol P); type: in vivo, common chickweed (Stellaria media); conditions: amount of applied herbicide 320 g/ha
Outline: as §2

rice flat sedge = assay: Test Example 3: herbicidal effect by foliage application, Wagner pot (Table 18, symbol E); type: in vivo, rice flat sedge (Cyperus iria); conditions: 320 g/ha
Outline: (§3)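 Plants were sown in alluvial soil held under 0.1–0.5 cm standing water and grown 14 days in a greenhouse at 25–30 °C. An emulsifiable formulation, water-diluted to the set dose, was then sprayed onto the foliage, and effects were scored three weeks later using previously defined criteria.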

blackgrass [5] = assay: Test Example 5: herbicidal effect by foliage application, plastic box (Table 20, symbol J); type: in vivo, blackgrass (Alopecurus myosuroides); conditions: amount of applied herbicide 320 g/ha; foliage application after 14-day growth; evaluated three weeks after application
Outline: as §1

barnyard grass [6] = assay: Test Example 5: herbicidal effect by foliage application, plastic box (Table 20, symbol H); type: in vivo, barnyard grass (Echinochloa crus-galli); conditions: amount of applied herbicide 320 g/ha; foliage application after 14-day growth; evaluated three weeks after application
Outline: as §1

blackgrass [7] = assay: Test Example 4: herbicidal effect by soil treatment (Table 19, symbol J); type: in vivo, blackgrass (Alopecurus myosuroides); conditions: amount of applied herbicide 320 g/ha
Outline: as §2

Italian ryegrass [8] = assay: Test Example 4: herbicidal effect by soil treatment (Table 19, symbol K); type: in vivo, Italian ryegrass (Lolium multiflorum); conditions: amount of applied herbicide 320 g/ha
Outline: as §2

Chinese sprangletop = assay: Test Example 3: herbicidal effect by foliage application, Wagner pot (Table 18, symbol D); type: in vivo, chinese sprangletop (Leptochloa chinensis); conditions: 320 g/ha
Outline: as §3

Italian ryegrass [9] = assay: Test Example 5: herbicidal effect by foliage application, plastic box (Table 20, symbol K); type: in vivo, Italian ryegrass (Lolium multiflorum); conditions: amount of applied herbicide 320 g/ha; foliage application after 14-day growth; evaluated three weeks after application
Outline: as §1

southern crabgrass [10] = assay: Test Example 4: herbicidal effect by soil treatment (Table 19, symbol F); type: in vivo, southern crabgrass (Digitaria ciliaris); conditions: amount of applied herbicide 320 g/ha
Outline: as §2

green foxtail [11] = assay: Test Example 5: herbicidal effect by foliage application, plastic box (Table 20, symbol G); type: in vivo, green foxtail (Setaria viridis); conditions: amount of applied herbicide 320 g/ha; foliage application after 14-day growth; evaluated three weeks after application
Outline: as §1

oval-leafed pondweed = assay: Test Example 1: herbicidal activity, application before weed generation under submerged conditions (Table 16, symbol C); type: in vivo, oval-leafed pondweed (Monochoria vaginalis); conditions: amount of applied herbicide 320 g/ha
Outline: (§4)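 Emulsion formulation, water-diluted to set dose, was put onto the flooded surface (4 cm depth, alluvial soil) the same day weeds were sown and 2.5-leaf rice transplanted. After 3 weeks at 25-30 °C under glass, each species was rated 0 (≤5% kill) to 5 (≥90% kill).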

persian speedwell [12] = assay: Test Example 4: herbicidal effect by soil treatment (Table 19, symbol R); type: in vivo, Persian speedwell (Veronica persica); conditions: amount of applied herbicide 320 g/ha
Outline: as §2

velvetleaf [13] = assay: Test Example 4: herbicidal effect by soil treatment (Table 19, symbol M); type: in vivo, velvetleaf (Abutilon theophrasti); conditions: amount of applied herbicide 320 g/ha
Outline: as §2

windgrass [14] = assay: Test Example 4: herbicidal effect by soil treatment (Table 19, symbol L); type: in vivo, windgrass (Apera spica-venti); conditions: amount of applied herbicide 320 g/ha
Outline: as §2

Japanese bulrush = assay: Test Example 1: herbicidal activity, application before weed generation under submerged conditions (Table 16, symbol B); type: in vivo, Japanese bulrush (Schoenoplectus juncoides); conditions: amount of applied herbicide 320 g/ha
Outline: as §4

barnyard grass [15] = assay: Test Example 4: herbicidal effect by soil treatment (Table 19, symbol H); type: in vivo, barnyard grass (Echinochloa crus-galli); conditions: amount of applied herbicide 320 g/ha
Outline: as §2

lambsquarters [16] = assay: Test Example 5: herbicidal effect by foliage application, plastic box (Table 20, symbol O); type: in vivo, lambsquarters (Chenopodium album); conditions: amount of applied herbicide 320 g/ha; foliage application after 14-day growth; evaluated three weeks after application
Outline: as §1

wild oat [17] = assay: Test Example 5: herbicidal effect by foliage application, plastic box (Table 20, symbol I); type: in vivo, wild oat (Avena fatua); conditions: amount of applied herbicide 320 g/ha; foliage application after 14-day growth; evaluated three weeks after application
Outline: as §1

redroot pigweed [18] = assay: Test Example 5: herbicidal effect by foliage application, plastic box (Table 20, symbol N); type: in vivo, redroot pigweed (Amaranthus retroflexus); conditions: amount of applied herbicide 320 g/ha; foliage application after 14-day growth; evaluated three weeks after application
Outline: as §1

redroot pigweed [19] = assay: Test Example 4: herbicidal effect by soil treatment (Table 19, symbol N); type: in vivo, redroot pigweed (Amaranthus retroflexus); conditions: amount of applied herbicide 320 g/ha
Outline: as §2

wild oat [20] = assay: Test Example 4: herbicidal effect by soil treatment (Table 19, symbol I); type: in vivo, wild oat (Avena fatua); conditions: amount of applied herbicide 320 g/ha
Outline: as §2

velvetleaf [21] = assay: Test Example 5: herbicidal effect by foliage application, plastic box (Table 20, symbol M); type: in vivo, velvetleaf (Abutilon theophrasti); conditions: amount of applied herbicide 320 g/ha; foliage application after 14-day growth; evaluated three weeks after application
Outline: as §1

late watergrass = assay: Test Example 1: herbicidal activity, application before weed generation under submerged conditions (Table 16, symbol A); type: in vivo, late watergrass (Echinochloa oryzicola); conditions: amount of applied herbicide 320 g/ha
Outline: as §4

green foxtail [22] = assay: Test Example 4: herbicidal effect by soil treatment (Table 19, symbol G); type: in vivo, green foxtail (Setaria viridis); conditions: amount of applied herbicide 320 g/ha
Outline: as §2

barnyard grass [23] = assay: Test Example 3: herbicidal effect by foliage application, Wagner pot (Table 18, symbol H); type: in vivo, barnyard grass (Echinochloa crus-galli); conditions: 320 g/ha
Outline: as §3

persian speedwell [24] = assay: Test Example 5: herbicidal effect by foliage application, plastic box (Table 20, symbol R); type: in vivo, Persian speedwell (Veronica persica); conditions: amount of applied herbicide 320 g/ha; foliage application after 14-day growth; evaluated three weeks after application
Outline: as §1

southern crabgrass [25] = assay: Test Example 5: herbicidal effect by foliage application, plastic box (Table 20, symbol F); type: in vivo, southern crabgrass (Digitaria ciliaris); conditions: amount of applied herbicide 320 g/ha; foliage application after 14-day growth; evaluated three weeks after application
Outline: as §1

## CCCC(=O)Oc1c(C)nn(C)c(=O)c1-c1c(-c2ccccc2OC(F)(F)F)sc2c(Cl)cccc12 [4-077]
Chickweed [1]
  Herbicidal effect by foliage application, P: chickweed: 5 (Herbicidal rate of 90% or more (almost completely withered))
Lambsquarters [2]
  Herbicidal effect by soil treatment, O: lambsquarters: 0 (Herbicidal rate of 5% or less (almost no effect))
Windgrass [3]
  Herbicidal effect by foliage application, L: windgrass: 0 (Herbicidal rate of 5% or less (almost no effect))
Chickweed [4]
  Herbicidal effect by soil treatment, P: chickweed: 0 (Herbicidal rate of 5% or less (almost no effect))
Rice flat sedge
  herbicidal effect on rice flat sedge (E): 5 (Herbicidal rate of 90% or more (almost completely withered))
Blackgrass [5]
  Herbicidal effect by foliage application, J: blackgrass: 0 (Herbicidal rate of 5% or less (almost no effect))
Barnyard grass [6]
  Herbicidal effect by foliage application, H: barnyard grass: 3 (Herbicidal rate of 40% or more and less than 70%)
Blackgrass [7]
  Herbicidal effect by soil treatment, J: blackgrass: 0 (Herbicidal rate of 5% or less (almost no effect))
Italian ryegrass [8]
  Herbicidal effect by soil treatment, K: Italian ryegrass: 0 (Herbicidal rate of 5% or less (almost no effect))
Chinese sprangletop
  herbicidal effect on Chinese sprangletop (D): 4 (Herbicidal rate of 70% or more and less than 90%)
Italian ryegrass [9]
  Herbicidal effect by foliage application, K: Italian ryegrass: 3 (Herbicidal rate of 40% or more and less than 70%)
Southern crabgrass [10]
  Herbicidal effect by soil treatment, F: southern crabgrass: 0 (Herbicidal rate of 5% or less (almost no effect))
Green foxtail [11]
  Herbicidal effect by foliage application, G: green foxtail: 3 (Herbicidal rate of 40% or more and less than 70%)
oval-leafed pondweed
  Herbicidal effect, C: oval-leafed pondweed: 0 (Herbicidal rate of 5% or less (almost no effect))
Persian speedwell [12]
  Herbicidal effect by soil treatment, R: persian speedwell: 3 (Herbicidal rate of 40% or more and less than 70%)
Velvetleaf [13]
  Herbicidal effect by soil treatment, M: velvetleaf: 0 (Herbicidal rate of 5% or less (almost no effect))
Windgrass [14]
  Herbicidal effect by soil treatment, L: windgrass: 0 (Herbicidal rate of 5% or less (almost no effect))
Japanese bulrush
  Herbicidal effect, B: Japanese bulrush: 0 (Herbicidal rate of 5% or less (almost no effect))
Barnyard grass [15]
  Herbicidal effect by soil treatment, H: barnyard grass: 0 (Herbicidal rate of 5% or less (almost no effect))
Lambsquarters [16]
  Herbicidal effect by foliage application, O: lambsquarters: 4 (Herbicidal rate of 70% or more and less than 90%)
Wild oat [17]
  Herbicidal effect by foliage application, I: wild oat: 0 (Herbicidal rate of 5% or less (almost no effect))
Redroot pigweed [18]
  Herbicidal effect by foliage application, N: redroot pigweed: 5 (Herbicidal rate of 90% or more (almost completely withered))
Redroot pigweed [19]
  Herbicidal effect by soil treatment, N: redroot pigweed: 3 (Herbicidal rate of 40% or more and less than 70%)
Wild oat [20]
  Herbicidal effect by soil treatment, I: wild oat: 0 (Herbicidal rate of 5% or less (almost no effect))
Velvetleaf [21]
  Herbicidal effect by foliage application, M: velvetleaf: 5 (Herbicidal rate of 90% or more (almost completely withered))
Late watergrass
  Herbicidal effect, A: late watergrass: 3 (Herbicidal rate of 40% or more and less than 70%)
Green foxtail [22]
  Herbicidal effect by soil treatment, G: green foxtail: 0 (Herbicidal rate of 5% or less (almost no effect))
Barnyard grass [23]
  herbicidal effect on barnyard grass (H): 5 (Herbicidal rate of 90% or more (almost completely withered))
Persian speedwell [24]
  Herbicidal effect by foliage application, R: persian speedwell: 5 (Herbicidal rate of 90% or more (almost completely withered))
Southern crabgrass [25]
  Herbicidal effect by foliage application, F: southern crabgrass: 0 (Herbicidal rate of 5% or less (almost no effect))

## CCOc1ccccc1-c1sc2c(C)cccc2c1-c1c(O)c(C)nn(C)c1=O [4-112]
Chickweed [1]
  Herbicidal effect by foliage application, P: chickweed: 5 (Herbicidal rate of 90% or more (almost completely withered))
Lambsquarters [2]
  Herbicidal effect by soil treatment, O: lambsquarters: 3 (Herbicidal rate of 40% or more and less than 70%)
Windgrass [3]
  Herbicidal effect by foliage application, L: windgrass: 5 (Herbicidal rate of 90% or more (almost completely withered))
Chickweed [4]
  Herbicidal effect by soil treatment, P: chickweed: 3 (Herbicidal rate of 40% or more and less than 70%)
Rice flat sedge
  herbicidal effect on rice flat sedge (E): 5 (Herbicidal rate of 90% or more (almost completely withered))
Blackgrass [5]
  Herbicidal effect by foliage application, J: blackgrass: 5 (Herbicidal rate of 90% or more (almost completely withered))
Barnyard grass [6]
  Herbicidal effect by foliage application, H: barnyard grass: 4 (Herbicidal rate of 70% or more and less than 90%)
Blackgrass [7]
  Herbicidal effect by soil treatment, J: blackgrass: 2 (Herbicidal rate of 20% or more and less than 40%)
Italian ryegrass [8]
  Herbicidal effect by soil treatment, K: Italian ryegrass: 3 (Herbicidal rate of 40% or more and less than 70%)
Chinese sprangletop
  herbicidal effect on Chinese sprangletop (D): 4 (Herbicidal rate of 70% or more and less than 90%)
Italian ryegrass [9]
  Herbicidal effect by foliage application, K: Italian ryegrass: 4 (Herbicidal rate of 70% or more and less than 90%)
Southern crabgrass [10]
  Herbicidal effect by soil treatment, F: southern crabgrass: 3 (Herbicidal rate of 40% or more and less than 70%)
Green foxtail [11]
  Herbicidal effect by foliage application, G: green foxtail: 5 (Herbicidal rate of 90% or more (almost completely withered))
oval-leafed pondweed
  Herbicidal effect, C: oval-leafed pondweed: 0 (Herbicidal rate of 5% or less (almost no effect))
Persian speedwell [12]
  Herbicidal effect by soil treatment, R: persian speedwell: 5 (Herbicidal rate of 90% or more (almost completely withered))
Velvetleaf [13]
  Herbicidal effect by soil treatment, M: velvetleaf: 3 (Herbicidal rate of 40% or more and less than 70%)
Windgrass [14]
  Herbicidal effect by soil treatment, L: windgrass: 4 (Herbicidal rate of 70% or more and less than 90%)
Japanese bulrush
  Herbicidal effect, B: Japanese bulrush: 3 (Herbicidal rate of 40% or more and less than 70%)
Barnyard grass [15]
  Herbicidal effect by soil treatment, H: barnyard grass: 3 (Herbicidal rate of 40% or more and less than 70%)
Lambsquarters [16]
  Herbicidal effect by foliage application, O: lambsquarters: 5 (Herbicidal rate of 90% or more (almost completely withered))
Wild oat [17]
  Herbicidal effect by foliage application, I: wild oat: 4 (Herbicidal rate of 70% or more and less than 90%)
Redroot pigweed [18]
  Herbicidal effect by foliage application, N: redroot pigweed: 5 (Herbicidal rate of 90% or more (almost completely withered))
Redroot pigweed [19]
  Herbicidal effect by soil treatment, N: redroot pigweed: 4 (Herbicidal rate of 70% or more and less than 90%)
Wild oat [20]
  Herbicidal effect by soil treatment, I: wild oat: 0 (Herbicidal rate of 5% or less (almost no effect))
Velvetleaf [21]
  Herbicidal effect by foliage application, M: velvetleaf: 5 (Herbicidal rate of 90% or more (almost completely withered))
Late watergrass
  Herbicidal effect, A: late watergrass: 3 (Herbicidal rate of 40% or more and less than 70%)
Green foxtail [22]
  Herbicidal effect by soil treatment, G: green foxtail: 4 (Herbicidal rate of 70% or more and less than 90%)
Barnyard grass [23]
  herbicidal effect on barnyard grass (H): 5 (Herbicidal rate of 90% or more (almost completely withered))
Persian speedwell [24]
  Herbicidal effect by foliage application, R: persian speedwell: 5 (Herbicidal rate of 90% or more (almost completely withered))
Southern crabgrass [25]
  Herbicidal effect by foliage application, F: southern crabgrass: 4 (Herbicidal rate of 70% or more and less than 90%)
